In the test the target is T1, Shab K+ channel (dShab 11) (Drosophila melanogaster, UniProt P17970).
T1 construct: Shab cDNA (dShab 11) by recombinant baculovirus in Sf9 insect cells; homotetramer
T1 sequence (P17970 1-1015): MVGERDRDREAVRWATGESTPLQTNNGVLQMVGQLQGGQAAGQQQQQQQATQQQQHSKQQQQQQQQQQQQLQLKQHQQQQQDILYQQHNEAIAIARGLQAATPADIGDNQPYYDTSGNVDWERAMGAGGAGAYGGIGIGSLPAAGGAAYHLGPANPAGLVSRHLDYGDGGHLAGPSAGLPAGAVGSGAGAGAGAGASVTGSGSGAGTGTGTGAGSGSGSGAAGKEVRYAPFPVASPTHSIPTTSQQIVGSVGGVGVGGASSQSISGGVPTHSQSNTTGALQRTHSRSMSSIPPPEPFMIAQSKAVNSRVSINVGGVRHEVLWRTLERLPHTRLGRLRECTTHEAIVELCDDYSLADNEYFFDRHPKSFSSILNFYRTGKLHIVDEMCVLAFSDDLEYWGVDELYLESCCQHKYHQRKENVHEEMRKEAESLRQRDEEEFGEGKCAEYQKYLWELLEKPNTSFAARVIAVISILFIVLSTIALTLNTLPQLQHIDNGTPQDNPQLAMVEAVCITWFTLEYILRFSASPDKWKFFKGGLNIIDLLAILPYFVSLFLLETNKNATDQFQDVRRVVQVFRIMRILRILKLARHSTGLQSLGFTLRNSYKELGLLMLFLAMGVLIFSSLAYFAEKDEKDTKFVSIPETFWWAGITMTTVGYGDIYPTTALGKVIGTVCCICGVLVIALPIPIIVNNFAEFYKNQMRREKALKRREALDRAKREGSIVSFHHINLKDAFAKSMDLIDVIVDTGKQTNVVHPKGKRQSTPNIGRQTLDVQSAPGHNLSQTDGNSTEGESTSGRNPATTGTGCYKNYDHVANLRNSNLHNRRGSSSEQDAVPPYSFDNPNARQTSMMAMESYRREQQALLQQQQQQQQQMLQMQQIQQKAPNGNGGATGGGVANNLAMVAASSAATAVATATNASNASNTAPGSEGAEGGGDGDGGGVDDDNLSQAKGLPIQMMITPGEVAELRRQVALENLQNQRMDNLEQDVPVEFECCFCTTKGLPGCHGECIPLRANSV
In words: whole-cell patch clamp, block of K+ current, Michaelis-Menten fit. It is filed as cell-based. (The patch-clamp technique gives a direct electrical read-out from membranes.)

For orientation: Kd means the constant that tells how readily two partners part at equilibrium. A low value points to higher affinity. Turning to `CC[N+](CC)(CC)CC` [TEA], the Kd is 10.8 mM.
